These are literature values, as cited in patent US20150320893A1, “TREATMENT OF LATENT HIV INFECTION” (priority 2012, published 2015).

The test system of this data set is latent virus in harboring cells. To be noted: by manipulating the PKC pathway(s) within the cell.

Regarding `CC(=O)O[C@@]12C[C@@H](C)[C@@]3(O)[C@@H](C=C(CO)C[C@]4(O)C(=O)C(C)=C[C@@H]34)[C@@H]1C2(C)C` [Prostratin], the “ability to induce latent viral replication” value is recorded as “induce latent viral replication without encouraging cell cycle progression”.
Take `CCC/C=C/C=C/C(=O)O[C@H]1/C(=C/C(=O)OC)C[C@H]2C[C@H]([C@@H](C)O)OC(=O)C[C@H](O)C[C@@H]3C[C@H](OC(C)=O)C(C)(C)[C@](O)(C[C@@H]4C/C(=C/C(=O)OC)C[C@H](/C=C/C(C)(C)[C@]1(O)O2)O4)O3` [bryostatin-1, bryostatin 1]: the “ability to induce latent viral replication” value is listed as “induce latent viral replication without encouraging cell cycle progression”.
